The compounds below were run against PI3Kβ (Homo sapiens (Human), UniProt P42338) (assay: TR-FRET enzymatic activity assay, PI3Kβ). Conditions: 2× Km ATP, 2 μM PIP2, 30 minutes at 25° C., read-out: IC50-PIP-Beta.
Assay type: biochemical
Summary of the method: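 Purified recombinant heterodimeric PI3Kβ; PIP3 formation read by TR-FRET as competition with fluorescent tracer for GRP-1 PH domain binding. Compounds incubated 30 min at 25 °C.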

Chain of PI3Kβ (P42338 whole entry): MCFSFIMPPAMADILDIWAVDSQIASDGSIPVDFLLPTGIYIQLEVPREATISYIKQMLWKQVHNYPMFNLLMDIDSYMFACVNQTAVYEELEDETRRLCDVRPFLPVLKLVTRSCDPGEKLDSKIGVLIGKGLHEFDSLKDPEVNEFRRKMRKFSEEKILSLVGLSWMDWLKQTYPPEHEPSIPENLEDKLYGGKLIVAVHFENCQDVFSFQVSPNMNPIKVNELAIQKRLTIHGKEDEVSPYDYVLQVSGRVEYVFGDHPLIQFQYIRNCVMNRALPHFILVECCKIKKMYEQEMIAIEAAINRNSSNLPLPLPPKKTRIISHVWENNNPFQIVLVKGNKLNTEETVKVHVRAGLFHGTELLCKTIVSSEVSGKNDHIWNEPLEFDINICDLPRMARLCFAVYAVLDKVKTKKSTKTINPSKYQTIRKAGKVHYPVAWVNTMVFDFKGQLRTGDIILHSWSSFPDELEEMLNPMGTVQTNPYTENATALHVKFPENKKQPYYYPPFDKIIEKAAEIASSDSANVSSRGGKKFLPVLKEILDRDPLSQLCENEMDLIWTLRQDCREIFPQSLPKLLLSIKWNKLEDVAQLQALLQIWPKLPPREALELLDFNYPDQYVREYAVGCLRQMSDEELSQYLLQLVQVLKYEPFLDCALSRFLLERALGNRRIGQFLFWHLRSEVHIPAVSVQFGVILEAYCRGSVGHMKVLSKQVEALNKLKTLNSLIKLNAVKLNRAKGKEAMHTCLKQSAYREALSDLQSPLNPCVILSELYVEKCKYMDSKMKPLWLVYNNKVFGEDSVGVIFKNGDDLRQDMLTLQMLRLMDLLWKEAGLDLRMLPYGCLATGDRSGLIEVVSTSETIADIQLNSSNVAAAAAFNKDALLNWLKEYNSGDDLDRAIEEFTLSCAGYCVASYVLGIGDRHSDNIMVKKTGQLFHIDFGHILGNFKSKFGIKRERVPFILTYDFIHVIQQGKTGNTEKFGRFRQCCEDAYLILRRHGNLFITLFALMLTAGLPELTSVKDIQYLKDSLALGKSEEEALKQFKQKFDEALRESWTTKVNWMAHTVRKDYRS
Chain of PI3Kβ (P27986 whole entry partner): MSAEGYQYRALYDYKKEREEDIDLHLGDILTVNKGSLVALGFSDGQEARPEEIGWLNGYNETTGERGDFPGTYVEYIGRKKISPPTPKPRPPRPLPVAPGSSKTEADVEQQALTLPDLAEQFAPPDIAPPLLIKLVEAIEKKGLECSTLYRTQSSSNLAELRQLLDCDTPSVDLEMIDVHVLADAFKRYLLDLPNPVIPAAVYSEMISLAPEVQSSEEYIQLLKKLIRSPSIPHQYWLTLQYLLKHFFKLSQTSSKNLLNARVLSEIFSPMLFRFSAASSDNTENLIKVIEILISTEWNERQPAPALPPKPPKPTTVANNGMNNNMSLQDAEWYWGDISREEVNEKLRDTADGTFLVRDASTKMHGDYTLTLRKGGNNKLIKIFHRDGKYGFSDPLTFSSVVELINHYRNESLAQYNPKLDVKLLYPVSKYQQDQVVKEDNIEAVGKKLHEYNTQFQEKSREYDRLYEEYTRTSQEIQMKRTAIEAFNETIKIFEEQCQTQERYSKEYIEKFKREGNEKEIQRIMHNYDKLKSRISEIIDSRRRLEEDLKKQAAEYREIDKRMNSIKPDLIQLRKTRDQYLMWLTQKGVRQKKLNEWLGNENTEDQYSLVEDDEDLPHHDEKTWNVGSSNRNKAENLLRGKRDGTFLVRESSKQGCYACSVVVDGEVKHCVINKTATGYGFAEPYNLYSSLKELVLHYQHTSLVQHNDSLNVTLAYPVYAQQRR

IC50 | SMILES
54 nM | Cc1nc2c(-c3nnc[nH]3)cc(-c3ccnc(C#N)c3)cc2n1-c1ccnc2cccc(F)c12 (single isomer, unassigned) [Example 132, 4-(1-(5-fluoroquinolin-4-yl)-2-methyl-4-(4H-1,2,4-triazol-3-yl)-1H-benzo[d]imidazol-6-yl)picolinonitrile]
6 nM | Cc1nc2c(-c3nnc[nH]3)cc(-c3ccncc3)cc2n1-c1ccnc2c(F)ccc(F)c12 (atropisomer, axis not shown) [Example 139, 5,8-difluoro-4-(2-methyl-6-(pyridin-4-yl)-4-(4H-1,2,4-triazol-3-yl)-1H-benzo[d]imidazol-1-yl)quinoline]
19 nM | Cc1nc2c(-c3nnc[nH]3)cc(-c3ccnc(N)c3Cl)cc2n1-c1ccnc2c(F)ccc(F)c12 [Example 91, 3-chloro-4-[3-(5,8-difluoroquinolin-4-yl)-2-methyl-7-(4H-1,2,4-triazol-3-yl)benzimidazol-5-yl]pyridin-2-amine]
2600 nM | CCc1nc2c(-c3nnc[nH]3)cc(-c3ccnc(N)c3F)cc2n1-c1ccnc2c(F)ccc(F)c12 (single isomer, unassigned) [Example 109, 4-[3-(5,8-difluoroquinolin-4-yl)-2-ethyl-7-(4H-1,2,4-triazol-3-yl)benzimidazol-5-yl]-3-fluoropyridin-2-amine]
13 nM | Nc1cc(-c2cc(-c3nnc[nH]3)c3nc(CC4CC4)n(-c4ccnc5c(F)ccc(F)c45)c3c2)ccn1 [Example 71, 4-[2-(cyclopropylmethyl)-3-(5,8-difluoroquinolin-4-yl)-7-(4H-1,2,4-triazol-3-yl)benzimidazol-5-yl]pyridin-2-amine]
35 nM | Cc1nc2c(-c3nnc[nH]3)cc(-c3ccnc(N)c3F)cc2n1-c1ccnc2cc(F)cc(F)c12 (single isomer, unassigned) [Example 118]
22 nM | Cc1nnc(-c2cc(-c3ccncc3)cc3c2nc(C)n3-c2ccnc3c(Cl)cccc23)[nH]1 [Example 35, 8-chloro-4-[2-methyl-4-(5-methyl-4H-1,2,4-triazol-3-yl)-6-pyridin-4-ylbenzimidazol-1-yl]quinoline]
23 nM | Cc1nc2c(C(N)=O)cc(-c3ccnc(N)c3)cc2n1-c1ccnc2c(Cl)ccc(F)c12 [Example 18, 6-(2-aminopyridin-4-yl)-1-(8-chloro-5-fluoroquinolin-4-yl)-2-methylbenzimidazole-4-carboxamide]
170 nM | Cc1nnc(-c2cc(-c3ccnc(N)c3)cc3c2nc(C)n3-c2ccnc3c(Cl)cccc23)[nH]1 [Example 49, 4-[3-(8-chloroquinolin-4-yl)-2-methyl-7-(5-methyl-4H-1,2,4-triazol-3-yl)benzimidazol-5-yl]pyridin-2-amine]
11 nM | Nc1nccc(-c2cc(-c3nnc[nH]3)c3ncn(-c4ccnc5c(F)ccc(F)c45)c3c2)c1F [Example 102, 4-[3-(5,8-difluoroquinolin-4-yl)-7-(4H-1,2,4-triazol-3-yl)benzimidazol-5-yl]-3-fluoropyridin-2-amine]
6 nM | Cc1nc2c(-c3nnc[nH]3)cc(-c3ccnc(N)c3F)cc2n1-c1ccnc2c(Cl)ccc(Cl)c12 [Example 161, 4-(1-(5,8-dichloroquinolin-4-yl)-2-methyl-4-(4H-1,2,4-triazol-3-yl)-1H-benzo[d]imidazol-6-yl)-3-fluoropyridin-2-amine]
340 nM | Cc1cc(-c2cc(-c3nnc[nH]3)c3nc(C)n(-c4ccnc5c(F)ccc(F)c45)c3c2)cc(N)n1 [Example 90, 4-[3-(5,8-difluoroquinolin-4-yl)-2-methyl-7-(4H-1,2,4-triazol-3-yl)benzimidazol-5-yl]-6-methylpyridin-2-amine]
5 nM | CCCc1nc2c(-c3nnc[nH]3)cc(-c3ccnc(N)c3F)cc2n1-c1ccnc2c(F)ccc(F)c12 [Example 78, 4-[3-(5,8-difluoroquinolin-4-yl)-2-propyl-7-(4H-1,2,4-triazol-3-yl)benzimidazol-5-yl]-3-fluoropyridin-2-amine]
460 nM | Cc1nc2c(C(N)=O)cc(-c3ncnc(N)c3C#N)cc2n1-c1ccnc2c(F)ccc(F)c12 [Example 157, 6-(6-amino-5-cyanopyrimidin-4-yl)-1-(5,8-difluoroquinolin-4-yl)-2-methyl-1H-benzo[d]imidazole-4-carboxamide]
7 nM | Cc1nc2c(-c3nnc[nH]3)cc(-c3ccnc(Cl)c3)cc2n1-c1ccnc2c(F)ccc(F)c12 [Example 158, 4-(6-(2-chloropyridin-4-yl)-2-methyl-4-(4H-1,2,4-triazol-3-yl)-1H-benzo[d]imidazol-1-yl)-5,8-difluoroquinoline]
47 nM | Nc1cc(-c2cc(-c3nnc[nH]3)c3nc(C4CC4)n(-c4ccnc5c(F)ccc(F)c45)c3c2)ccn1 [Example 69, 4-[2-cyclopropyl-3-(5,8-difluoroquinolin-4-yl)-7-(4H-1,2,4-triazol-3-yl)benzimidazol-5-yl]pyridin-2-amine]
120 nM | Nc1nccc(-c2ccc3ncn(-c4cc(N5CCNCC5)nc5ccccc45)c3c2)c1F [Example 163, 3-fluoro-4-(1-(2-(piperazin-1-yl)quinolin-4-yl)-1H-benzo[d]imidazol-6-yl)pyridin-2-amine]
1400 nM | Cc1nc2c(-c3nnc[nH]3)cc(-c3ccnc(N)c3F)cc2n1-c1ccnc2c(F)ccc(F)c12 (single isomer, unassigned) [Example 105, 4-[3-(5,8-difluoroquinolin-4-yl)-2-methyl-7-(4H-1,2,4-triazol-3-yl)benzimidazol-5-yl]-3-fluoropyridin-2-amine]
1 nM | Cc1nc2c(-c3nnc[nH]3)cc(-c3ccnc(C#N)c3)cc2n1-c1ccnc2c(Cl)ccc(Cl)c12 (single isomer, unassigned) [Example 121, 4-(1-(5,8-dichloroquinolin-4-yl)-2-methyl-4-(4H-1,2,4-triazol-3-yl)-1H-benzo[d]imidazol-6-yl)picolinonitrile]
10 nM | Fc1nccc(-c2cc(-c3nnc[nH]3)c3ncn(-c4cc(N5CCNCC5)nc5ccccc45)c3c2)c1F [Example 164, 4-(6-(2,3-difluoropyridin-4-yl)-4-(4H-1,2,4-triazol-3-yl)-1H-benzo[d]imidazol-1-yl)-2-(piperazin-1-yl)quinoline]
3 nM | Nc1nccc(-c2cc(-c3nnc[nH]3)c3nc(C4CC4)n(-c4ccnc5c(Cl)ccc(F)c45)c3c2)c1F [Example 85, 4-[3-(8-chloro-5-fluoroquinolin-4-yl)-2-cyclopropyl-7-(4H-1,2,4-triazol-3-yl)benzimidazol-5-yl]-3-fluoropyridin-2-amine]
8 nM | Cc1nc2c(-c3nnc[nH]3)cc(-c3ccncc3)cc2n1-c1ccnc2cccc(F)c12 [Example 30, 5-fluoro-4-[2-methyl-6-pyridin-4-yl-4-(4H-1,2,4-triazol-3-yl)benzimidazol-1-yl]quinoline]
120 nM | Cc1cc(-c2cc(-c3nnc[nH]3)c3nc(C)n(-c4ccnc5c(F)ccc(F)c45)c3c2)ccn1 (single isomer, unassigned) [Example 141, 5,8-difluoro-4-(2-methyl-6-(2-methylpyridin-4-yl)-4-(4H-1,2,4-triazol-3-yl)-1H-benzo[d]imidazol-1-yl)quinoline]
57 nM | Cc1nc2c(-c3nnc[nH]3)cc(-c3ccnc(C#N)c3)cc2n1-c1ccnc2c(Cl)cccc12 (single isomer, unassigned) [Example 130, 4-(1-(8-chloroquinolin-4-yl)-2-methyl-4-(4H-1,2,4-triazol-3-yl)-1H-benzo[d]imidazol-6-yl)picolinonitrile]

Source: US10227350B2 (Gilead Sciences, Inc., priority 2016, dated 2019)
